Measurements as given in US9222059B2, “Cleaning formulations with improved surfactant solubility and methods of production and use thereof” (The Sun Products Corporation, priority 2011, dated 2015).
Where two headings read alike, the source gives them in different places.

Columns and labels:
[1] = Liquid stability / solubility of high-concentration EMES in water with C8 amine oxide; conditions: 25% EMES, about 2% C8 AO; FIG. 6b
Procedure: Similar approaches were taken for examining the impact of increasing EMES concentration on liquid stability (i.e., examining the solubility of the surfactant in solution at a given concentration), and the ability of hydrotropes to improve EMES solubility. Specifically, samples of EMES in water were prepared at different concentrations and observed as described above for any evidence of instability or poor solubility.

[2] = Storage stability (Pass/Fail) of base liquid detergent formulation with 9.5% EMES plus candidate hydrotrope; assay type: physicochemical; design: key: a sample was said to “Pass” if it remained a clear isotropic liquid at the indicated challenge temperature; a sample was said to “Fail” if it showed any of the above-described evidence of instability or insolubility
[3] = Rheology, 40 mm circular plate rheometer (flowability/pumpability); assay type: physicochemical; conditions: agent at about 5% to about 8%; results not shown
Procedure: A solution of 35% EMES+7% C8 amine oxide in water was prepared as described in the foregoing examples. […] The rheology of the solution was then tested using a 40 mm circular plate rheometer. A conditioning step was performed which brought the plate to 25° C., and a pre-shear step was carried out at 0.7958 Pa for 30 sec, and then the device was equilibrated until it reached 0 velocity. Then the main continuous ramp step began on the solution, which ran for 1 minute, and the shear stress was increased from 0.1 to 250 Pa. A total of 15 data points were collected, and the device remained at 25° C. the entire time. […] Solutions of about 40% or more EMES, however, required a slightly higher amine oxide content to remain flowable and pumpable, but the shear stress necessary was inordinately high. Therefore, for applications in which it may be desirable to pump the surfactant formulation, it is preferable to use 35% or lower EMES in the formulation.
We also evaluated whether or not inclusion of one or more additional components in the solution would improve the pumpability of high concentration EMES formulations. Specifically, ethanol or glycerine at about 5% to about 8% were included in formulations containing 35% EMES/7% C8 amine oxide.

[4] = Interfacial surface tension / CMC (detergency), pendant drop method, Kruss DSA100; assay type: physicochemical; conditions: 0 to 250 ppm in water; FIG. 1
Text: First, we addressed the fact that MES has typically been thought of as a component that can show poor detergency. A surfactant's cleaning performance (i.e., detergency) can be measured directly by an examination of its interfacial tension (IFT) as a function of its critical micelle concentration (CMC, the concentration where the surfactant's monomers arrange themselves in a spherical shape so that their hydrophobic tails can trap oil). We therefore wanted to examine the suitability of various surfactants, including various types of MES, for use in reducing surface tension (i.e., detergency) over various surfactant concentrations. Surfactants were titrated in water at concentrations from 0 to 250 ppm (which is typical of “in use” conditions for surfactant formulations in household laundry methods), and the interfacial surface tension of these solutions was measured as a function of concentration using the pendant drop method on a Kruss DSA100 drop shape analyzer. […] As one of ordinary skill will readily understand, other tensiometric methods of determining interfacial surface tension can also be used, for example using a Du Nouy ring, drop volume, or bubble tensiometer; suitable instrumentation and methods for measuring surface tension using such approaches are well-known in the art. […]

[5] = material 2.00 % w/v in base detergent with 9.5% EMES, 1 week
[6] = material 2.00 % w/v in base detergent with 9.5% EMES, 3 cycles, -20° C.
[7] = material 2.00 % w/v in base detergent with 9.5% EMES, 12 weeks
[8] = material 2.00 % w/v in base detergent with 9.5% EMES, 52 weeks

Compound | Freeze/Thaw storage [2, 6] | Room Temp. storage [2, 8] | 40° F. storage [2] | 105° F. storage [2] | 125° F. storage [2] | other results
CCCCCCCC[N+](C)(C)[O-] [C8 AO, octyl dimethyl amine oxide] | – | – | – | – | – | appearance of EMES solution with hydrotrope [1]: nearly clear, isotropic solution
CCO [Ethanol, Ethyl alcohol, reference compound] | Pass | Pass | – | – | – | 125° F. storage [2, 5]: Pass; 40° F. storage [2, 7]: Fail; 105° F. storage [2, 7]: Pass; flowability of 35% EMES/7% C8 amine oxide with added agent [3]: worse
CCCCCCCCCC[N+](C)(C)[O-] [Genamino x DC40, Decyl dimethyl amine oxide] | Pass | Pass | Fail | Pass | Pass | –
CC(O)CO (stereo not shown) [Propylene glycol, Propylene glycol (1,2-propane diol), reference compound] | Pass | Pass | – | – | – | 125° F. storage [2, 5]: Pass; 40° F. storage [2, 7]: Fail; 105° F. storage [2, 7]: Pass
CCCCCCCC[N+](C)(C)[O-] [Synthetic C8 3853-01, Octyl dimethyl amine oxide] | Pass | Pass | Pass | Pass | Pass | –
C[N+](C)(C)CC(=O)O [Tomamine LH, Betaine] | Pass | Pass | Fail | Pass | Pass | –
CCCCCCCCCCCC(=O)OCCOCCOCCOCCOCCOCCOCCOCCOCCOCCOCCOCCOCCOCCOCCOCCOCCOCCOCCOCCOCC(OCCOCCOCCOCCOCCOCCOCCOCCOCCOCCOCCOCCOCCOCCOCCOCCOCCOCCOCCOCCO)C1OCC(OCCOCCOCCOCCOCCOCCOCCOCCOCCOCCOCCOCCOCCOCCOCCOCCOCCOCCOCCOCCO)C1OCCOCCOCCOCCOCCOCCOCCOCCOCCOCCOCCOCCOCCOCCOCCOCCOCCOCCOCCOCCO (stereo not shown) [Tween 20, Polysorbate 20] | – | – | Fail | Pass | Pass | Freeze/Thaw storage [2]: Pass; Room Temp. storage [2]: Pass
Akkylglucoside [AG6206] | Pass | Pass | Fail | Pass | Pass | –
Glycerine (propane 1,2,3-triol) [reference compound] | – | – | Fail | Pass | Pass | Freeze/Thaw storage [2]: Pass; Room Temp. storage [2]: Pass; flowability of 35% EMES/7% C8 amine oxide with added agent [3]: worse
Lauramine oxide [Ammonyx LO] | Pass | Pass | Fail | Pass | Pass | –
Methyl ester sulfonate [MES] | – | – | – | – | – | critical micelle concentration (CMC), compared with LAS, SLES [4]: reaches its CMC the quickest; interfacial tension (IFT), compared with LAS, SLES [4]: lowest IFT at each concentration measured
Sodium xylene sulfonate [reference compound] | – | – | Fail | Pass | Pass | Freeze/Thaw storage [2]: Pass; Room Temp. storage [2]: Pass
